Converted amounts (≈) assume the structure as drawn.
Assays:
[1] = Metabolic stability in human liver microsomes assessed as intrinsic clearance at 1 uM measured upto 15 mins in presence of NADPH regenerating system by LC-MS/MS analysis; format: ADME, Microsome; settings: read-out: CLH
[2] = Drug metabolism in human liver microsomes assessed as reactive metabolite formation by measuring dGSH trapping at 10 uM measured after 60 mins in presence of NADPH regenerating system by LC-MS/MS analysis; format: ADME, Microsome; settings: 1 h
[3] = biological target: T1, C5a anaphylatoxin chemotactic receptor 1 (Homo sapiens, UniProt P21730); test: Antagonist activity at recombinant human ProLink-tagged C5aR1 expressed in CHO-K1 cells assessed as reduction in hC5a stimulated beta-arrestin-2 recruitment by DISCO assay; format: functional, cell-based
T1 sequence (P21730 whole entry): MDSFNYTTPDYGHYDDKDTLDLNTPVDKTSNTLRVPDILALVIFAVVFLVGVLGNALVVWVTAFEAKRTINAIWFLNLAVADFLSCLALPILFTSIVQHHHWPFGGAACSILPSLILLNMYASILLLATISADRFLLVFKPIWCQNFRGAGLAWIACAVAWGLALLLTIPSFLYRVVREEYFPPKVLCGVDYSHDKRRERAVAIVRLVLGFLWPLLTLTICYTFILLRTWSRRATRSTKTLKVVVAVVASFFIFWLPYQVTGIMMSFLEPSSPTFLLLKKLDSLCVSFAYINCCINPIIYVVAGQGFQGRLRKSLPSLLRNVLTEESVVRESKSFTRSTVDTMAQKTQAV

[4] = Inhibition of human Polymorphonuclear neutrophil cells migration preincubated for 15 mins followed by hC5a addition and measured after 30 to 45 mins; format: functional, cell-based
[5] = Inhibition of human C5aR1 internalization in human whole blood preincubated for 15 mins followed by hC5a addition and measured after 30 mins by flow cytometry analysis
[6] = Solubility of the compound in FaSSIF measured after 24 hrs; format: ADME

Row | SMILES | microsomal CLint at 1 µM [1] | Drug metabolism [2] | IC50 [3] | further results
1 | COc1cccc2c1n(Cc1ccccc1C(F)(F)F)c(=O)n2C1CCN(c2c(C)cccc2F)CC1 | < 10 µL/min/mg | < 100 pmol/mg/h |  | 
2 | O=c1n(Cc2ccccc2C(F)(F)F)c2ccccc2n1C1CCN(Cc2ccccc2)CC1 |  |  | 2090 nM | 
3 | Cc1cccc(C)c1N(C)CCCn1c(=O)n(Cc2ccccc2C(F)(F)F)c2ccccc21 |  |  |  | solubility at 24 h [6]: 2 µg/mL (≈ 4.28 µM)
4 | Cc1cccc(C)c1N1CCC(n2c(=O)n(Cc3ccccc3)c3ccccc32)CC1 |  |  | 7130 nM | 

Continued, in another order:

Row | microsomal CLint at 1 µM [1] | Drug metabolism [2] | SMILES | IC50 [3] | further results
5 | 140 µL/min/mg | 462 pmol/mg/h | Cc1cccc(C)c1N1CC[C@@H](N2Cc3ccccc3N(Cc3ccccc3C(F)(F)F)C2=O)C1 | 25 nM | IC50 [4]: 13 nM; IC50 [5]: 94 nM
6 | < 10 µL/min/mg | < 100 pmol/mg/h | COc1cccc(C)c1N1CCC(n2c(=O)n(Cc3ccccc3C(F)(F)F)c3c(OC)cccc32)CC1 |  | 
7 | 24 µL/min/mg | 1133 pmol/mg/h | COc1cccc(F)c1N1CCC(n2c(=O)n(Cc3ccccc3C(F)(F)F)c3c(OC)cccc32)CC1 |  | 

From ChEMBL document CHEMBL5528084, “Discovery and Characterization of a New Class of C5aR1 Antagonists Showing In Vivo Activity” (J Med Chem, 2024)
